Measured values as given in patent US10842845B2, “Oxytocin improves treatment of obstructive sleep apnea” (THE GEORGE WASHINGTON UNIVERSITY, priority 2014, dated 2020).
Entries after “also recorded” stand apart in the source; their conditions may differ.

Tests used:
[1] = system: Patients recently diagnosed with OSA; assay: Intranasal oxytocin in patients recently diagnosed with OSA (polysomnography, sleep quality score); assay type: in vivo, human; settings: 40 IU oxytocin intranasally about one hour prior to sleeping
Procedure: Patients recently diagnosed with OSA were recruited to test the effect of oxytocin administration on heart rate, apnea-hypopnea index, oxygen saturation, apnea duration, arousal index etc. The study is approved by the FDA (IND #120989). Patients were administered 40 IU of oxytocin intranasally about one hour prior to sleeping.
The following eight outcomes were compared in the same patients prior to and after administration with oxytocin: • basal heart rate before sleep (primary outcome) • mean changes in heart rate with apneic and hypopneic events (primary outcome) • apnea-hypopnea index (secondary outcome) • percentage of time spent by the patient with oxygen saturations: >90%, >80% but <90%, and <80% (secondary outcome) • duration of apneas • oxygen desaturation during apneas (expressed as adverse desaturations in percent oxygen) • numbers of arousals (expressed per hour) • sleep quality
The following information was recorded for each patient before and after the use of intranasal oxytocin:
• a. Basal heart rate before sleep • b. Apnea-hypopnea index • c. Mean changes in heart rate with apneic and hypopneic events • d. Percentage of time spent by the patient with oxygen saturations: >90%, >80% but <90%, and <80%. • e. Duration of apneas • f. Oxygen desaturation during apneas (expressed as adverse desaturations in percent oxygen) • g. Numbers of arousals (expressed per hour) • h. Sleep quality 3. Standard of care sleep study data using PSG: Polysomnography (PSG) monitors many body functions during sleep, including brain (EEG), eye movements (EOG), muscle activity or skeletal muscle activation (EMG), heart rhythm (ECG), respiratory airflow, thoracic and abdominal respiratory effort, body position, limb movement, and oxygen saturation using pulse oximetry. Recording and scoring was done according to the standards set by the American Academy of Sleep Medicine. 4. Sleep quality score: Patients were asked to rank their responses using the scale of 1-5 for a set of empirical factors: • 1—Strongly disagree • 2—Slightly disagree • 3—Neither agree nor disagree • 4—Slightly agree • 5—Strongly agree Empirical Factors: • I feel more refreshed than usual this morning • My quality of sleep last night was better than usual • I slept deeper than usual last night • I woke up fewer times than usual last night • I slept longer than usual last night • I feel better overall than usual this morning

[2] = system: rats; settings: acute icy infusion of oxytocin; cited from earlier work
[3] = same patients prior to and after administration

With `CC[C@H](C)[C@@H]1NC(=O)[C@H](Cc2ccc(O)cc2)NC(=O)[C@@H](N)CSSC[C@@H](C(=O)N2CCC[C@H]2C(=O)N[C@@H](CC(C)C)C(=O)NCC(N)=O)NC(=O)[C@H](CC(N)=O)NC(=O)[C@H](CCC(N)=O)NC1=O` [oxytocin] the duration of apnea [1, 3] was “reduces”, the number of arousals/hour [1, 3] was “decreases; also recorded: reduces” and the oxygen desaturation [1, 3] was “reduces”. The “sleep quality or sleep satisfaction” value ([1]; score on scale of 1-5 for empirical factors) was “improves”, the “high-frequency activity in the electroencephalogram (EEG) within non-REMS” value [2] was “augmented” and the “non-REMS and REMS” value [2] was “transient reduction”. For the same molecule, the sleep onset latency [2] was “delayed”.
